In patent US20230024302A1, “2,3,5-TRISUBSTITUTED PYRAZOLO[1,5-A]PYRIMIDINE COMPOUNDS” (Arcus Biosciences, Inc., priority 2019, published 2023):

Columns and labels:
PI3Kγ (p120γ) = molecular target: T1, PI3Kγ (p120γ) (Homo sapiens, UniProt P48736); assay: Inhibition of PI3K kinase activity (ADP Glo), PI3Kγ; details: Table 1, p120γ, read-out: biochemical potency (PI3Kγ IC50)
T1 construct: purchased Promega V1761
How it was run: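 IC50 values come from a 4-parameter nonlinear fit of ADP-Glo luminescence, which measures ADP produced as PIP2 is phosphorylated to PIP3. The p120γ enzyme (2× stock 8 nM) sat with compound 1 h at rt before substrate (2× stocks: 50 μM ATP, 0.1 mg/ml PIP2) was added. Phosphorylation then proceeded 60 min at rt.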

PI3Kγ = molecular target: T2, PI3Kγ (Homo sapiens, UniProt P48736); assay: PI3Kγ cellular assay in THP-1 cells (AKT pS473 AlphaLISA); type: cell-based; details: Table 1, rhMCP-1 stimulated AKT pS473, read-out: cellular potency (PI3Kγ IC50)
T2 construct: host or cells: THP-1
How it was run: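 Endogenous AKT S473 phosphorylation, detected by AlphaLISA in lysates, serves as the PI3Kγ activity read-out in stimulated, serum-starved THP-1 cells (1.8×10^5/well).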

T2 sequence (P48736 whole entry): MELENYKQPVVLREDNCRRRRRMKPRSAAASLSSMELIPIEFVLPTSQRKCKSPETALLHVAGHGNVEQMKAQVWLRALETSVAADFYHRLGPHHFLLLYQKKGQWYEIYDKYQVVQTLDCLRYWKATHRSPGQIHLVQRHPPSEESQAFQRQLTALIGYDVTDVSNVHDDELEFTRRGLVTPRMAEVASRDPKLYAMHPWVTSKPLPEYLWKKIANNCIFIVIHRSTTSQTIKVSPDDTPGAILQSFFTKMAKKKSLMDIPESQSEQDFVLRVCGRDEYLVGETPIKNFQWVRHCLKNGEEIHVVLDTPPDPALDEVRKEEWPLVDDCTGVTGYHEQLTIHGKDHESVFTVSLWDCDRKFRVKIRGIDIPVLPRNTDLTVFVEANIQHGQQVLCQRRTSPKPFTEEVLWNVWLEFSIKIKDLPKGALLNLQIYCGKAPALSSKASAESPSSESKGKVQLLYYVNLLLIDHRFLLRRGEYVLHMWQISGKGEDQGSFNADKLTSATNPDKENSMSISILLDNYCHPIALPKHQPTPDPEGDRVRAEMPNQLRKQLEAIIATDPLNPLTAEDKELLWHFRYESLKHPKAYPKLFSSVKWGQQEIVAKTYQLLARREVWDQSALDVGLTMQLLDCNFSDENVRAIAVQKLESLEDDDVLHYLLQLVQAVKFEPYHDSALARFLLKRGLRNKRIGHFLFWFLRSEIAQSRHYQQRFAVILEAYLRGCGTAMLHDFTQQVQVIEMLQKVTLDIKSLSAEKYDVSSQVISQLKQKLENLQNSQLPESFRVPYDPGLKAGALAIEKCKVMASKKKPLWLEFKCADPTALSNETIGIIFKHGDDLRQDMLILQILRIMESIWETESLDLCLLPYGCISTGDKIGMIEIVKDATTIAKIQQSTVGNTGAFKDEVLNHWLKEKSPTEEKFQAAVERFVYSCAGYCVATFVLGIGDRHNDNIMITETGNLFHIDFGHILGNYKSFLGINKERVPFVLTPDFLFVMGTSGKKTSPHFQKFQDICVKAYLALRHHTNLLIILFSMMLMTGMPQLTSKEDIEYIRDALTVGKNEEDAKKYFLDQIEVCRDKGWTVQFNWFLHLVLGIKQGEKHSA
T1 sequence (P48736 whole entry): as above

C[C@@H](C1CC1)N1Cc2cc(-c3ccn4nc(N)c(C(=O)NC5(C)COC5)c4n3)cc(C(F)(F)F)c2C1=O [Example 56, 2-[(S)-1-Cyclopropylethyl]-5-{2-amino-3-[(3-methyl-3-oxetanylamino)carbonyl]-1,4,7a-triaza-5-indenyl}-7-(trifluoromethyl)-1-isoindolinone]
IC50 (PI3Kγ (p120γ)): < 100 nM | IC50 (PI3Kγ): < 100 nM

C[C@H](CCO)NC(=O)c1c(N)nn2ccc(-c3cc4c(c(C(F)(F)F)c3)C(=O)N([C@@H](C)C3CC3)C4)nc12 [Example 57, 5-(3-{[(R)-3-Hydroxy-1-methylpropylamino]carbonyl}-2-amino-1,4,7a-triaza-5-indenyl)-2-[(S)-1-cyclopropylethyl]-7-(trifluoromethyl)-1-isoindolinone]
IC50 (PI3Kγ (p120γ)): < 100 nM | IC50 (PI3Kγ): < 100 nM

C[C@@H](C1CC1)N1Cc2cc(-c3ccn4nc(N)c(C(=O)NCCCCO)c4n3)cc(C(F)(F)F)c2C1=O [Example 58, 2-[(S)-1-Cyclopropylethyl]-5-{2-amino-3-[(4-hydroxybutylamino)carbonyl]-1,4,7a-triaza-5-indenyl}-7-(trifluoromethyl)-1-isoindolinone]
IC50 (PI3Kγ (p120γ)): < 100 nM | IC50 (PI3Kγ): < 100 nM

C[C@@H](C1CC1)N1Cc2cc(-c3ccn4nc(N)c(C(=O)NCCC(C)(C)O)c4n3)cc(C(F)(F)F)c2C1=O [Example 59, 2-[(S)-1-Cyclopropylethyl]-5-{2-amino-3-[(3-hydroxy-3-methylbutylamino)carbonyl]-1,4,7a-triaza-5-indenyl}-7-(trifluoromethyl)-1-isoindolinone]
IC50 (PI3Kγ (p120γ)): < 100 nM | IC50 (PI3Kγ): < 100 nM

C[C@@H](C1CC1)N1Cc2cc(-c3ccn4nc(N)c(C(=O)N[C@H]5CC[C@H](CO)CC5)c4n3)cc(C(F)(F)F)c2C1=O [Example 60, 2-Amino-5-(2-((S)-1-cyclopropylethyl)-1-oxo-7-(trifluoromethyl)isoindolin-5-yl)-N-(trans-4-(hydroxymethyl)cyclohexyl)pyrazolo[1,5-a]pyrimidine-3-carboxamide]
IC50 (PI3Kγ (p120γ)): < 100 nM | IC50 (PI3Kγ): < 100 nM

C[C@@H](C1CC1)N1Cc2cc(-c3ccn4nc(N)c(C(=O)N[C@H]5CC[C@H](C(C)(C)O)CC5)c4n3)cc(C(F)(F)F)c2C1=O [Example 61, 2-Amino-5-(2-((S)-1-cyclopropylethyl)-1-oxo-7-(trifluoromethyl)isoindolin-5-yl)-N-(trans-4-(2-hydroxypropan-2-yl)cyclohexyl)pyrazolo[1,5-a]pyrimidine-3-carboxamide]
IC50 (PI3Kγ (p120γ)): < 100 nM | IC50 (PI3Kγ): < 100 nM

C[C@@H](C1CC1)N1Cc2cc(-c3ccn4nc(N)c(C(=O)N[C@H]5CC[C@H](C6(O)CC6)CC5)c4n3)cc(C(F)(F)F)c2C1=O [Example 62, 2-Amino-5-(2-((S)-1-cyclopropylethyl)-1-oxo-7-(trifluoromethyl)isoindolin-5-yl)-N-(trans-4-(1-hydroxycyclopropyl)cyclohexyl)pyrazolo[1,5-a]pyrimidine-3-carboxamide]
IC50 (PI3Kγ (p120γ)): < 100 nM | IC50 (PI3Kγ): < 100 nM

C[C@@H](C1CC1)N1Cc2cc(-c3ccn4nc(N)c(C(=O)N[C@H]5CCC[C@@H](O)C5)c4n3)cc(C(F)(F)F)c2C1=O [Example 63, 2-Amino-5-{2-[(1S)-1-cyclopropylethyl]-1-oxo-7-(trifluoromethyl)-2,3-dihydro-1H-isoindol-5-yl}-N-[(1S,3R)-3-hydroxycyclohexyl]pyrazolo[1,5-a]pyrimidine-3-carboxamide]
IC50 (PI3Kγ (p120γ)): < 100 nM | IC50 (PI3Kγ): < 100 nM

C[C@@H](C1CC1)N1Cc2cc(-c3ccn4nc(N)c(C(=O)N[C@H]5CNC(=O)C5)c4n3)cc(C(F)(F)F)c2C1=O [Example 64, 2-Amino-5-{2-[(1S)-1-cyclopropylethyl]-1-oxo-7-(trifluoromethyl)-2,3-dihydro-1H-isoindol-5-yl}-N-[(3R)-5-oxopyrrolidin-3-yl]pyrazolo[1,5-a]pyrimidine-3-carboxamide]
IC50 (PI3Kγ (p120γ)): < 100 nM | IC50 (PI3Kγ): < 100 nM

C[C@@H](C1CC1)N1Cc2cc(-c3ccn4nc(N)c(C(=O)N[C@H]5C[C@H](O)C5)c4n3)cc(C(F)(F)F)c2C1=O [Example 65, 2-Amino-5-{2-[(1S)-1-cyclopropylethyl]-1-oxo-7-(trifluoromethyl)-2,3-dihydro-1H-isoindol-5-yl}-N-[trans-3-hydroxycyclobutyl]pyrazolo[1,5-a]pyrimidine-3-carboxamide]
IC50 (PI3Kγ (p120γ)): < 100 nM | IC50 (PI3Kγ): < 100 nM

C[C@@H](C1CC1)N1Cc2cc(-c3ccn4nc(N)c(C(N)=O)c4n3)cc(C(F)(F)F)c2C1=O [Example 66]
IC50 (PI3Kγ (p120γ)): < 100 nM | IC50 (PI3Kγ): 100 to 1000 nM

CNC(=O)c1c(N)nn2ccc(-c3cc4c(c(C(F)(F)F)c3)C(=O)N([C@@H](C)C3CC3)C4)nc12 [Example 67, 2-[(S)-1-Cyclopropylethyl]-5-[2-amino-3-(methylamino)carbonyl-1,4,7a-triaza-5-indenyl]-7-(trifluoromethyl)-1-isoindolinone]
IC50 (PI3Kγ (p120γ)): < 100 nM | IC50 (PI3Kγ): < 100 nM

CCNC(=O)c1c(N)nn2ccc(-c3cc4c(c(C(F)(F)F)c3)C(=O)N([C@@H](C)C3CC3)C4)nc12 [Example 68, 2-[(S)-1-Cyclopropylethyl]-5-[2-amino-3-(ethylamino)carbonyl-1,4,7a-triaza-5-indenyl]-7-(trifluoromethyl)-1-isoindolinone]
IC50 (PI3Kγ (p120γ)): < 100 nM | IC50 (PI3Kγ): < 100 nM

C[C@@H](C1CC1)N1Cc2cc(-c3ccn4nc(N)c(C(=O)Nc5ccncc5)c4n3)cc(C(F)(F)F)c2C1=O [Example 69, (S)-2-Amino-5-(2-(1-cyclopropylethyl)-1-oxo-7-(trifluoromethyl)isoindolin-5-yl)-N-(pyridin-4-yl)pyrazolo[1,5-a]pyrimidine-3-carboxamide]
IC50 (PI3Kγ (p120γ)): < 100 nM | IC50 (PI3Kγ): < 100 nM

C[C@@H](C1CC1)N1Cc2cc(-c3ccn4nc(N)c(C(=O)Nc5cccnc5)c4n3)cc(C(F)(F)F)c2C1=O [Example 70, (S)-2-Amino-5-(2-(1-cyclopropylethyl)-1-oxo-7-(trifluoromethyl)isoindolin-5-yl)-N-(pyridin-3-yl)pyrazolo[1,5-a]pyrimidine-3-carboxamide]
IC50 (PI3Kγ (p120γ)): < 100 nM | IC50 (PI3Kγ): < 100 nM

C[C@@H](C1CC1)N1Cc2cc3cc(c2C1=O)OCCOCCNC(=O)c1c(N)nn2ccc-3nc12 [Example 71, 6-[(S)-1-Cyclopropylethyl]-19-amino-10.13-dioxa-6.16.20.21.24-pentaazapentacyclo[16.5.2.12,9.04,8.021,25]hexacosa-1(24),2,4(8),9(26),18(25),19,22-heptaene-7,17-dione]
IC50 (PI3Kγ (p120γ)): < 100 nM | IC50 (PI3Kγ): < 100 nM

C[C@@H](C1CC1)N1Cc2cc(-c3ccn4nc(N)c(C(=O)N[C@@H]5CCC[C@H]5O)c4n3)cc(NS(C)(=O)=O)c2C1=O [Example 72, 2-Amino-5-{2-[(1S)-1-cyclopropylethyl]-7-methanesulfonamido-1-oxo-2,3-dihydro-1H-isoindol-5-yl}-N-[(1R,2R)-2-hydroxycyclopentyl]pyrazolo[1,5-a]pyrimidine-3-carboxamide]
IC50 (PI3Kγ (p120γ)): < 100 nM | IC50 (PI3Kγ): < 100 nM

CNC(=O)c1c(N)nn2ccc(-c3cc4c(c(NS(C)(=O)=O)c3)C(=O)N([C@@H](C)C3CC3)C4)nc12 [Example 73, 2-Amino-5-{2-[(1S)-1-cyclopropylethyl]-7-methanesulfonamido-1-oxo-2,3-dihydro-1H-isoindol-5-yl}-N-methylpyrazolo[1,5-a]pyrimidine-3-carboxamide]
IC50 (PI3Kγ (p120γ)): < 100 nM | IC50 (PI3Kγ): < 100 nM

CCNC(=O)c1c(N)nn2ccc(-c3cc4c(c(NS(C)(=O)=O)c3)C(=O)N([C@@H](C)C3CC3)C4)nc12 [Example 74, 2-Amino-5-{2-[(1S)-1-cyclopropylethyl]-7-methanesulfonamido-1-oxo-2,3-dihydro-1H-isoindol-5-yl}-N-ethylpyrazolo[1,5-a]pyrimidine-3-carboxamide]
IC50 (PI3Kγ (p120γ)): < 100 nM | IC50 (PI3Kγ): < 100 nM

CC(C)NC(=O)c1c(N)nn2ccc(-c3cc4c(c(NS(C)(=O)=O)c3)C(=O)N([C@@H](C)C3CC3)C4)nc12 [Example 75, 2-Amino-5-{2-[(1S)-1-cyclopropylethyl]-7-methanesulfonamido-1-oxo-2,3-dihydro-1H-isoindol-5-yl}-N-(propan-2-yl)pyrazolo[1,5-a]pyrimidine-3-carboxamide]
IC50 (PI3Kγ (p120γ)): < 100 nM | IC50 (PI3Kγ): < 100 nM

C[C@@H](C1CC1)N1Cc2cc(-c3ccn4nc(N)c(C(N)=O)c4n3)cc(NS(C)(=O)=O)c2C1=O [Example 76, 5-{2-[(S)-1-Cyclopropylethyl]-7-(methylsulfonylamino)-5-isoindolinoyl}-2-amino-1,4,7a-triaza-3-indenecarboxamide]
IC50 (PI3Kγ (p120γ)): < 100 nM | IC50 (PI3Kγ): 100 to 1000 nM

C[C@@H](C1CC1)N1Cc2cc(-c3ccn4nc(N)c(C(=O)NC5CC56CC6)c4n3)cc(NS(C)(=O)=O)c2C1=O (stereo partly drawn) [Example 77, 2-[(S)-1-Cyclopropylethyl]-5-(2-amino-3-{(1-spiro[2.2]pentylamino)carbonyl}-1,4,7a-triaza-5-indenyl)-7-(methylsulfonylamino)-1-isoindolinone]
IC50 (PI3Kγ (p120γ)): < 100 nM | IC50 (PI3Kγ): < 100 nM

C[C@@H](C1CC1)N1Cc2cc(-c3ccn4nc(N)c(C(=O)NC5COC5)c4n3)cc(NS(C)(=O)=O)c2C1=O [Example 78, 2-Amino-5-{2-[(1S)-1-cyclopropylethyl]-7-methanesulfonamido-1-oxo-2,3-dihydro-1H-isoindol-5-yl}-N-(oxetan-3-yl)pyrazolo[1,5-a]pyrimidine-3-carboxamide]
IC50 (PI3Kγ (p120γ)): < 100 nM | IC50 (PI3Kγ): < 100 nM

C[C@@H](C1CC1)N1Cc2cc(-c3ccn4nc(N)c(C(=O)NC5(C)COC5)c4n3)cc(NS(C)(=O)=O)c2C1=O [Example 79, 2-Amino-5-{2-[(1S)-1-cyclopropylethyl]-7-methanesulfonamido-1-oxo-2,3-dihydro-1H-isoindol-5-yl}-N-(3-methyloxetan-3-yl)pyrazolo[1,5-a]pyrimidine-3-carboxamide]
IC50 (PI3Kγ (p120γ)): < 100 nM | IC50 (PI3Kγ): < 100 nM
